Test [1] addresses T1, Gastric inhibitory polypeptide receptor (Homo sapiens, UniProt P48546).
T1 sequence (P48546 whole entry): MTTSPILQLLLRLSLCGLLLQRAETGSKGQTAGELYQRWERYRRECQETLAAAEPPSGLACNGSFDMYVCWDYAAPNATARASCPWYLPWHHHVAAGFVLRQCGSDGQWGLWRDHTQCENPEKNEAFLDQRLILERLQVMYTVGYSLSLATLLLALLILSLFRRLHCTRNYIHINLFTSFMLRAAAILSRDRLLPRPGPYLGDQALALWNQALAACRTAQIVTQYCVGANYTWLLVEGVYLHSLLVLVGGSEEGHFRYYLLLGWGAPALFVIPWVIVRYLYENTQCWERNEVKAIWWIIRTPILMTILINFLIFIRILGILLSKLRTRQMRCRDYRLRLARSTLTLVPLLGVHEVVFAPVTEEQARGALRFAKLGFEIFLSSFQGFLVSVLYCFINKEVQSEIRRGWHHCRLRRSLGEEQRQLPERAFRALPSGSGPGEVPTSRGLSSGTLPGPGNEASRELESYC

Test [2] addresses T2, Alpha-2A adrenergic receptor (Homo sapiens, UniProt P08913).
T2 sequence (P08913 whole entry): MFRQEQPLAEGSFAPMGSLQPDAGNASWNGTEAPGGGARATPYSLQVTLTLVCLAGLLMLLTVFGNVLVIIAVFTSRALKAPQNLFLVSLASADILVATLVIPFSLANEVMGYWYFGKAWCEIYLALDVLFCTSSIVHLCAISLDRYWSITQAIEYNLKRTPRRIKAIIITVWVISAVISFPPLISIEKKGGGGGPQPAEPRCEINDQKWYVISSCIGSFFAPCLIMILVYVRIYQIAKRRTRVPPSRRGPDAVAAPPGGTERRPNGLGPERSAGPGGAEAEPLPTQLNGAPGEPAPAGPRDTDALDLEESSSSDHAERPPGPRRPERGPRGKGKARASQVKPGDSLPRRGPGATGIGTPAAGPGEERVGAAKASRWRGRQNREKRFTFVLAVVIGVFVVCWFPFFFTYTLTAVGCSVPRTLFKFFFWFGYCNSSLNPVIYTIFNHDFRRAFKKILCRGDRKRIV

The next test concerns the target D(1A) dopamine receptor (Homo sapiens, UniProt P21728).
In test [3] the target is T3, Muscarinic acetylcholine receptor M1 (Homo sapiens, UniProt P11229).
T3 sequence (P11229 whole entry): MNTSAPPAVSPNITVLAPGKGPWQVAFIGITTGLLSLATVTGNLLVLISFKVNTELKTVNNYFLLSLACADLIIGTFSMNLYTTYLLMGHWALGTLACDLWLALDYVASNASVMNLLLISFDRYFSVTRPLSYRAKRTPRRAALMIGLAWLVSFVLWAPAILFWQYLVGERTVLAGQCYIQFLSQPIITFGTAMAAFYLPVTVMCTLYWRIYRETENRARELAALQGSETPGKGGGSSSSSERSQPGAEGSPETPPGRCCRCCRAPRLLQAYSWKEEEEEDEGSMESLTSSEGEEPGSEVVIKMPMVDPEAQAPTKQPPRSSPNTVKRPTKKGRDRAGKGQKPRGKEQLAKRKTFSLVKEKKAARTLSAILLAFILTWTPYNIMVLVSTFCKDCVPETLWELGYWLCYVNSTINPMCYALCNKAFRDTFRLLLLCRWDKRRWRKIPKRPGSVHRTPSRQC
It is filed as functional, cell-based.

Test [4] concerns the target T4, Peroxisome proliferator-activated receptor gamma (Homo sapiens, UniProt P37231).
T4 sequence (P37231 whole entry): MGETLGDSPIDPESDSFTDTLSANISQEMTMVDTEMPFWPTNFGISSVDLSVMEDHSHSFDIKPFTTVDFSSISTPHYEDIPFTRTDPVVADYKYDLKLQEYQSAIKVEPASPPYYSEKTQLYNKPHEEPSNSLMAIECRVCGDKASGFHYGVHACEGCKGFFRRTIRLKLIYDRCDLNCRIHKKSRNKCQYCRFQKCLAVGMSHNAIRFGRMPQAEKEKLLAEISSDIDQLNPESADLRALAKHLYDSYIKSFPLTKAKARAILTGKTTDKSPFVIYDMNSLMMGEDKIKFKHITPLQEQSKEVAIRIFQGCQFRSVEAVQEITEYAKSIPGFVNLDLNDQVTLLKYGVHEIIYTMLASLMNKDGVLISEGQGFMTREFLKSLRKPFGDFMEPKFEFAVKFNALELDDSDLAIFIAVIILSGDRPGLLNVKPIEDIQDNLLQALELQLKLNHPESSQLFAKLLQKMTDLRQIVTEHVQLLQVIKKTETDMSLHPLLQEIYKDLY
In kind it is functional.
Also: assay procedure not described here.

D(1A) dopamine receptor, sequence (P21728 whole entry): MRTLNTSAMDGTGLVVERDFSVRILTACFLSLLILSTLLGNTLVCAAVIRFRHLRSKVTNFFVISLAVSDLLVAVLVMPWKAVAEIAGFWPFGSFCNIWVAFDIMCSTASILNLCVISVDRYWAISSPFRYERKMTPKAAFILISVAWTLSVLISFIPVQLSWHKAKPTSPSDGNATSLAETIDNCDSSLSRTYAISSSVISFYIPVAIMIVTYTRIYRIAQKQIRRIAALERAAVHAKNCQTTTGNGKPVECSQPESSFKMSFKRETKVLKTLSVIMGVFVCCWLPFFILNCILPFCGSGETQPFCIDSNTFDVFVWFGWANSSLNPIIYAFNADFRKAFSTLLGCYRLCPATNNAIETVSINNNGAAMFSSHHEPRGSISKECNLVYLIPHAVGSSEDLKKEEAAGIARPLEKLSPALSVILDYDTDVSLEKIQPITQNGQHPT

Regarding `CCOC(=O)[C@H](CCc1ccccc1)N[C@@H](C)C(=O)N1CCC[C@H]1C(=O)O`, the AC50 in test [1] was more than 30 µM; in test [2] it was more than 10 µM; at D(1A) dopamine receptor, more than 10 µM.

On to `Nc1nc(N)c2nc(-c3ccccc3)c(N)nc2n1`, for which the AC50 is more than 30 µM in test [1], more than 10 µM in test [2] and more than 10 µM on D(1A) dopamine receptor.

As to `C[C@H]1O[C@H](O[C@H]2[C@H](O)[C@@H](O)[C@@H](O[C@H]3[C@H](O)[C@@H](O)C(O)O[C@@H]3CO)O[C@@H]2CO)[C@H](O)[C@@H](O)[C@@H]1N[C@H]1C=C(CO)[C@@H](O)[C@H](O)[C@H]1O` (some centres undefined) [ACARBOSE], the AC50 in test [1] was more than 30 µM; in test [2] it was more than 10 µM; at D(1A) dopamine receptor it was more than 10 µM.

Regarding `Oc1ncnc2[nH]ncc12` [ALLOPURINOL], the AC50 in test [1] is more than 30 µM; in test [2], more than 10 µM; at D(1A) dopamine receptor, more than 10 µM.

`O=C1c2c(O)c(=O)ccn2N([C@@H]2c3ccccc3SCc3c2ccc(F)c3F)[C@@H]2COCCN12` [BALOXAVIR]: the AC50 in test [3] is more than 30 µM.

As for `C(=N\NC1=NCCN1)/c1c2ccccc2c(/C=N/NC2=NCCN2)c2ccccc12` [BISANTRENE], the AC50 in test [3] was more than 10 µM.

In the case of `CC(C)NCC(O)COc1ccc(COCCOC(C)C)cc1` (centres undefined) [BISOPROLOL], the figures for the AC50 (in test [1]; in test [2]; at D(1A) dopamine receptor) were more than 30 µM, more than 10 µM and more than 10 µM, respectively.

Turning to `COc1cc(Nc2c(C#N)cnc3cc(OCCCN4CCN(C)CC4)c(OC)cc23)c(Cl)cc1Cl` [BOSUTINIB], the AC50 was more than 10 µM in test [3], more than 30 µM in test [1], 6.01 µM in test [2] and more than 10 µM on D(1A) dopamine receptor.

`N[C@@H](C(=O)N[C@@H]1C(=O)N2C(C(=O)O)=C(Cl)CS[C@H]12)c1ccccc1` [CEFACLOR ANHYDROUS] returned a half-maximal activity concentration (AC50) in test [4] of more than 30 µM.

For `CCO/N=C(\C(=O)N[C@@H]1C(=O)N2C(C(=O)[O-])=C(Sc3nc(-c4cc[n+](C)cc4)cs3)CS[C@H]12)c1nsc(N)n1` [CEFTAROLINE], the concentration at half-maximal activity (AC50) in test [3] is more than 30 µM.

Turning to `CCC[C@@H]1C[C@@H](C(=O)N[C@@H]([C@H]2O[C@H](SC)[C@H](O)[C@@H](O)[C@H]2O)[C@H](C)Cl)N(C)C1` [CLINDAMYCIN], the results for the AC50 (in test [1]; in test [2]; on D(1A) dopamine receptor) were more than 30 µM, more than 10 µM and more than 10 µM, respectively.

In test [2], `CN(C)CCCN1c2ccccc2CCc2ccc(Cl)cc21` [CLOMIPRAMINE] had an AC50 of more than 10 µM.

`C[N+](C)(C)CCCCCCCCCC[N+](C)(C)C` [DECAMETHONIUM] came in with an AC50 in test [3] of more than 30 µM.

Turning to `O=C1c2ccccc2C(=O)C1C(=O)C(c1ccccc1)c1ccccc1` [DIPHENADIONE], in test [3], the AC50 was 7.26 µM.

Take `CN(CCOc1ccc(NS(C)(=O)=O)cc1)CCc1ccc(NS(C)(=O)=O)cc1` [DOFETILIDE]: the AC50 was more than 30 µM in test [3], more than 30 µM in test [1], more than 10 µM in test [2] and more than 10 µM on D(1A) dopamine receptor.

`COc1cc2c(cc1OC)C(=O)C(CC1CCN(Cc3ccccc3)CC1)C2` (centres undefined) [DONEPEZIL]: the concentration at half-maximal activity (AC50) in test [3] is more than 30 µM; in test [1] it was more than 30 µM; in test [2] it was 10.4 µM; on D(1A) dopamine receptor it was more than 10 µM.

Take `COC(=O)[C@@H]1CC2=CC(=O)CC[C@]2(C)[C@@]23O[C@@H]2C[C@@]2(C)[C@@H](CC[C@@]24CCC(=O)O4)[C@H]13` [EPLERENONE]: the AC50 in test [1] is more than 30 µM; in test [4], more than 30 µM; in test [2], more than 10 µM; at D(1A) dopamine receptor it was more than 10 µM.

`CCOC(=O)c1ccc(O)cc1` [ETHYLPARABEN] showed an AC50 in test [3] of more than 30 µM.

In test [3], `O=C1[C@H](CC[C@H](O)c2ccc(F)cc2)[C@@H](c2ccc(O)cc2)N1c1ccc(F)cc1` [EZETIMIBE] yielded an AC50 of more than 30 µM.

Consider `NC(N)=Nc1nc(CSCCC(N)=NS(N)(=O)=O)cs1` [FAMOTIDINE], for which the AC50 in test [1] is more than 30 µM; in test [2] it was more than 10 µM; at D(1A) dopamine receptor it was more than 10 µM.

In test [3], `O=C(COc1ccc(Cl)cc1)N1CCN(Cc2ccc3c(c2)OCO3)CC1` [FIPEXIDE] returned an AC50 of more than 30 µM.

Consider `CCC(=O)c1c(O)cc(O)cc1O` [FLOPROPIONE], for which the AC50 in test [3] is more than 30 µM.

Take `NS(=O)(=O)c1cc2c(cc1Cl)NCNS2(=O)=O` [HYDROCHLOROTHIAZIDE]: the results for the AC50 (in test [1]; in test [2]; on D(1A) dopamine receptor) were more than 30 µM, more than 10 µM and more than 10 µM, respectively.

`CC(=O)Oc1c(C)cc(OCC(O)CNC(C)C)c(C)c1C` (centres undefined) [METIPRANOLOL] came in with an AC50 in test [3] of more than 30 µM.

With `CCN(CC)CCNC(=O)c1cc(Cl)c(N)cc1OC` [METOCLOPRAMIDE], the AC50 is more than 30 µM in test [1], 7.32 µM in test [2] and more than 10 µM on D(1A) dopamine receptor.

`Cc1cccc(C)c1OCC(C)N` (centres undefined) [MEXILETINE] registered an AC50 in test [4] of more than 30 µM.

Consider `NC(=O)c1ncn([C@@H]2O[C@H](CO)[C@@H](O)[C@H]2O)c1O` [MIZORIBINE], for which, in test [4], the AC50 was more than 30 µM.

Turning to `CCc1nn(CCCN2CCN(c3cccc(Cl)c3)CC2)c(=O)n1CCOc1ccccc1` [NEFAZODONE], the AC50 in test [1] is more than 30 µM.

Regarding `OCCN1CCN(CCCN2c3ccccc3C=Cc3ccccc32)CC1` [OPIPRAMOL], the AC50 in test [3] was more than 30 µM; in test [4], more than 30 µM; at D(1A) dopamine receptor, 2.24 µM.

For the molecule `CC(N/C(=N\C#N)Nc1ccncc1)C(C)(C)C` (centres undefined) [PINACIDIL ANHYDROUS], the AC50 in test [3] was more than 30 µM.

Regarding `CCc1ccc(CCOc2ccc(CC3SC(=O)NC3=O)cc2)nc1` (centres undefined) [PIOGLITAZONE], the AC50 in test [1] is more than 30 µM; in test [2], 7.05 µM; on D(1A) dopamine receptor, more than 10 µM.

`CC(C(=O)O)c1ccc(N2CC=CC2)c(Cl)c1` (centres undefined) [PIRPROFEN]: the AC50 in test [3] was more than 30 µM; in test [1], more than 30 µM; in test [2], more than 10 µM; at D(1A) dopamine receptor, more than 10 µM.

For the molecule `NC(=O)c1cnccn1` [PYRAZINAMIDE], the figures for the AC50 (in test [1]; in test [2]; at D(1A) dopamine receptor) were more than 30 µM, more than 10 µM and more than 10 µM, respectively.

`CN(C)C(=O)Oc1ccc[n+](C)c1` [PYRIDOSTIGMINE] came in with an AC50 in test [3] of more than 30 µM.

In turn, `CC(C)OC(=O)[C@H](C)N[P@](=O)(OC[C@H]1O[C@@H](n2ccc(=O)[nH]c2=O)[C@](C)(F)[C@@H]1O)Oc1ccccc1` [SOFOSBUVIR] yielded an AC50 in test [3] of more than 30 µM.

For the molecule `Cc1ccc(O)c2ncccc12` [TILIQUINOL], the AC50 in test [3] is more than 30 µM.

On to `CC(=O)OC[C@H]1O[C@@H](n2ccc(=O)[nH]c2=O)[C@H](OC(C)=O)[C@@H]1OC(C)=O` [URIDINE TRIACETATE], for which, in test [3], the AC50 is more than 30 µM.

In test [3], `CCOC(=O)N[C@@H]1CC[C@@H]2[C@@H](C1)C[C@H]1C(=O)O[C@H](C)[C@H]1[C@H]2/C=C/c1ccc(-c2cccc(F)c2)cn1` [VORAPAXAR] yielded an AC50 of more than 30 µM.

As to `O=C(CCCCCCC(=O)Nc1ccccc1)NO` [VORINOSTAT], the AC50 (in test [2]; on D(1A) dopamine receptor) was more than 10 µM throughout.

The AC50 is the midpoint of the concentration-response curve, whichever way the signal moves. Read a high AC50 as weaker potency.

Values taken from ChEMBL document CHEMBL5291721, “A preclinical secondary pharmacology resource illuminates target-adverse drug reaction associations of marketed drugs” (Nat Commun, 2023).
